# Reference: article PMC6225302, “Depsidone Derivatives and a Cyclopeptide Produced by Marine Fungus Aspergillus unguis under Chemical Induction and by Its Plasma Induced Mutant” (Molecules : A Journal of Synthetic Chemistry and Natural …, 2018)
# System: brine shrimp (Artemia salina) larva
# Experiment: Brine shrimp larva lethality test
# Type: in vivo
# Settings: brine shrimp larvae, 24 h at 28 °C; read-out: Larvicidal Activity (LC50)
# Procedure: Compounds 1‒10 were evaluated for larvicidality using the brine shrimp (Artemia salina) larva lethality test. 0.15 g of frozen eggs of brine shrimp larva (purchased from Aijia Aquarium Co., Zhanjiang, China) were activated at room temperature for 12 h. After activation, eggs were added to 1 L of artificial seawater (3% sea salt), ventilated with air for 420 mL/min, then kept at a brightness at 1000 lux and incubated at 28 °C for 24 h. After incubation, the larvae were induced to the top of the separating funnel by phototaxis, and the dead ones on bottom were discharged. Then, in each well of the 96-well plate, 1 μL of test compounds (in DMSO) with different concentrations and 99 μL of seawater containing 20‒30 live larvae were added. After incubation under light at 28 °C for 24 h, recorded the numbers of dead larvae. Finally, 10 μL of the Lucus reagent were added into each well and the total number of brine shrimp larva in the well were counted. DMSO and Hg(NO3)2 were used as blank control and positive control, respectively. Lethality rate (%)=(lethality of treatment−lethality of blank control)/survival rate of blank control×100%
# The brine shrimp larva LC50 value is the concentration required to kill 50% of the larvae. Likewise, the LC50 was calculated using Origin 8.0 plotting and cubic polynomial regression.
smiles,measurement,value
"O=[N+]([O-])[O-].O=[N+]([O-])[O-].[Hg+2] [Hg(NO3)2, reference compound]",LC50,77 µM
